Read-outs that look alike come from different tables or passages of the source.
Experiments:
NR1/NR2B [1] = target: NR1/NR2B (Homo sapiens (Human), UniProt Q13224); experiment: Cell assay: FDSS Ca2+ influx inhibition in HEK293 cells expressing NR1/NR2B; details: read-out: NR2B NAM IC50;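 further: Fluo-8 Ca2+ signal read on Hamamatsu FDSS 6000 after glutamate, glycine and Ca2+ challenge following 10 min compound preincubation, end/baseline fluorescence ratio compared with MK801 control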
NR1/NR2B [2] = target: NR1/NR2B (Homo sapiens (Human), UniProt Q05586+Q13224); experiment: as above; details: Binned Activity, HEK293 cells expressing NR1/NR2B, Ca2+ influx; binned NR2B NAM IC50
Chain of NR1/NR2B (Homo sapiens (Human), UniProt Q05586+Q13224) (Q13224 27-1484, other chains not shown): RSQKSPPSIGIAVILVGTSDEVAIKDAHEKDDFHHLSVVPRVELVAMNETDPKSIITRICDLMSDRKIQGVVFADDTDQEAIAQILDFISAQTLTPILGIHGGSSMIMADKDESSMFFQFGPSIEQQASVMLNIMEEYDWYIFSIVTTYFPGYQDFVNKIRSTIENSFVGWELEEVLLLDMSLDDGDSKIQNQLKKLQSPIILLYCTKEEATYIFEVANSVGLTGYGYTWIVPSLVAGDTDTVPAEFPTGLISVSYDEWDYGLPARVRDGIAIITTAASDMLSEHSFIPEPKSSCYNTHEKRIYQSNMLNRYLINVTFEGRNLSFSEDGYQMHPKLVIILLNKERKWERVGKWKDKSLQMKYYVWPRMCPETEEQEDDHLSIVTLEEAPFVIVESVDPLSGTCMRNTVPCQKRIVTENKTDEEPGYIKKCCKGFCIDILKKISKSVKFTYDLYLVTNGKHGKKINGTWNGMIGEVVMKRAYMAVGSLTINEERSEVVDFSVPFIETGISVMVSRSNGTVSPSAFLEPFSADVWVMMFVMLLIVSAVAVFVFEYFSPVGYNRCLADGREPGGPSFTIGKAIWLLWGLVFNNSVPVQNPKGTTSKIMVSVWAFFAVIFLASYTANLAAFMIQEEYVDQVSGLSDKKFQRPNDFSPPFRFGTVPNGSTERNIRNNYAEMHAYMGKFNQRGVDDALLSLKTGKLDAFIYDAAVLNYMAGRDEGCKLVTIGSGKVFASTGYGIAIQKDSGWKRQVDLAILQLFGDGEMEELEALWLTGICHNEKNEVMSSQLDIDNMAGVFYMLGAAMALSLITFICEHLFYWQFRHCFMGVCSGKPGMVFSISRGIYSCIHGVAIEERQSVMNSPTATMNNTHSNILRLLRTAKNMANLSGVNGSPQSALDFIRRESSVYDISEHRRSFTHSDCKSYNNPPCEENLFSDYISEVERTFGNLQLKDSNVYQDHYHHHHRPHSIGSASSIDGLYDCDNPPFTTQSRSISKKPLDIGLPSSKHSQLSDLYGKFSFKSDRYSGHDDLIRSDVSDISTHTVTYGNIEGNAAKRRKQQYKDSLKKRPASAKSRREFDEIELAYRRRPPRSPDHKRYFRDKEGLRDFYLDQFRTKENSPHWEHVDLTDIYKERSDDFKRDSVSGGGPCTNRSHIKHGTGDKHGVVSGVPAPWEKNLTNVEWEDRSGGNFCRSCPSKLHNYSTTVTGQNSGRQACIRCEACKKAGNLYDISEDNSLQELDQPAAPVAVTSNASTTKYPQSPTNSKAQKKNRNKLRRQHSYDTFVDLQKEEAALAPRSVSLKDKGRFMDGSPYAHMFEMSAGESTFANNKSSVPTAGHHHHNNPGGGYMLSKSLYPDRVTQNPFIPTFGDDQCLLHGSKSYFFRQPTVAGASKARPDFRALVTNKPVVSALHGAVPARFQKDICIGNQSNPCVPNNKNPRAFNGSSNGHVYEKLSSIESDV

[3] = HEK293 cells expressing NR1/NR2B, Ca2+ influx

Chain of NR1/NR2B (Homo sapiens (Human), UniProt Q13224) (Q13224 27-1484, other chains not shown): as above

Compound	IC50 (NR1/NR2B [1]; [3])	IC50 (NR1/NR2B [2])	IC50 (NR1/NR2B [1])
O=C(CN1C[C@@H]2C[C@@](O)(Cc3ccccc3)C[C@@H]2C1)c1cccc(-c2ccc(O)cc2)c1 [Example 275, 2-((3aR,5r,6aS)-5-benzyl-5-hydroxyhexahydrocyclo-penta[c]pyrrol-2(1H)-yl)-1-(4′-hydroxy-[1,1′-biphenyl]-3-yl)ethanone]	10 µM	> 10 µM	
Cc1cccc(-c2ccc(C(=O)CN3C[C@@H]4C[C@@](O)(CCc5ccccc5)C[C@@H]4C3)cc2)c1 [Example 277]	10 µM	> 10 µM	
O[C@@]1(c2ccc(F)cc2)C[C@H]2CN(c3cccc(C(F)(F)F)n3)C[C@H]2C1 [Example 81, 5-(4-fluorophenyl)-2-[6-(trifluoromethyl)pyridin-2-yl]-octahydrocyclopenta[c] pyrrol-5-ol]	10 µM	> 10 µM	
Cc1ccc(NC(=O)N2C[C@@H]3C[C@@](O)(c4ccccc4)C[C@@H]3C2)cc1 [Example 3, 5-hydroxy-N-(4-methylphenyl)-5-phenyl-octahydrocyclopenta[c] pyrrole-2-carboxamide]		> 10 µM	10 µM
COc1ccc(NC(=O)N2C[C@@H]3C[C@@](O)(Cc4ccccc4)C[C@@H]3C2)cc1 [Example 126, (3aR,5r,6aS)-5-benzyl-5-hydroxy-N-(4-methoxy-phenyl)hexahydro-cyclopenta[c]pyrrole-2(1H)-carboxamide]	10 µM	> 10 µM	
O=C(Nc1ccccc1)N1C[C@H]2C[C@@H](c3ccccc3)C[C@H]2C1 [Example 102, N,5-diphenyl-octahydrocyclopenta[c] pyrrole-2-carboxamide]	10 µM	> 10 µM	
COc1ccccc1NC(=O)N1C[C@@H]2C[C@@](O)(Cc3ccccc3)C[C@@H]2C1 [Example 128, (3aR,5r,6aS)-5-benzyl-5-hydroxy-N-(2-meth-oxyphenyl)hexahydro-cyclopenta[c]pyrrole-2(1H)-carboxamide]	10 µM	> 10 µM	
O=C(CN1C[C@@H]2C[C@@](O)(Cc3ccccc3)C[C@@H]2C1)c1cccc(-c2cccc(F)c2)c1 [Example 271, 2-((3aR,5r,6aS)-5-benzyl-5-hydroxyhexahydrocyclo-penta[c]pyrrol-2(1H)-yl)-1-(3′-fluoro-[1,1′-biphenyl]-3-yl)ethanone]	10 µM	> 10 µM	
O=C(CCN1C[C@@H]2C[C@@](O)(c3ccccc3)C[C@@H]2C1)c1ccc(O)cc1 [Example 97, 3-(5-hydroxy-5-phenylhexahydrocyclo-penta[c]pyrrol-2(1H)-yl)-1-(4-hydroxyphenyl)propan-1-one]	10 µM	> 10 µM	
O=C(CN1C[C@@H]2C[C@@](O)(CC3CC3)C[C@@H]2C1)c1ccc(O)cn1 [Example 207, 2-((3aR,5r,6aS)-5-(cyclopropylmethyl)-5-hydroxyhexahydrocyclo-penta[c]pyrrol-2(1H)-yl)-1-(5-hydroxypyridin-2-yl)ethanone]	10 µM	> 10 µM	

Now from value to compound, other results behind:

IC50 (NR1/NR2B [1]; [3])	IC50 (NR1/NR2B [2])	Compound	IC50 (NR1/NR2B [1])
10 µM	> 10 µM	O=C(CN1C[C@@H]2C[C@@](O)(Cc3ccccc3)C[C@@H]2C1)c1cccc(-c2ccccc2)c1 [Example 268, 1-([1,1′-biphenyl]-3-yl)-2-((3aR,5r,6aS)-5-benzyl-5-hydroxyhexahydrocyclo-penta[c]pyrrol-2(1H)-yl)ethanone]	
10 µM	> 10 µM	COc1cccc(NC(=O)N2C[C@@H]3C[C@@](O)(Cc4ccccc4)C[C@@H]3C2)c1 [Example 119, (3aR,5r,6aS)-5-benzyl-5-hydroxy-N-(3-methoxy-phenyl)hexahydro-cyclopenta[c]pyrrole-2(1H)-carboxamide]	
0.0317 µM	< 0.1 µM	Oc1ccc([C@H](O)CN2C[C@@H]3C[C@@](O)(Cc4ccc(F)cc4)C[C@@H]3C2)nc1 [Example 256, (3aR,5R,6aS)-5-(4-fluorobenzyl)-2-((R)-2-hydroxy-2-(5-hydroxypyridin-2-yl)ethyl)octahydrocyclo-penta[c]pyrrol-5-ol]	
10 µM	> 10 µM	COc1cccc(-c2ccc(C(=O)CN3C[C@@H]4C[C@@](O)(Cc5ccccc5)C[C@@H]4C3)cc2)c1 [Example 265, 2-((3aR,5r,6aS)-5-benzyl-5-hydroxyhexahydrocyclo-penta[c]pyrrol-2(1H)-yl)-1-(3′-methoxy-[1,1′-biphenyl]-4-yl)ethanone]	
10 µM	> 10 µM	O=C(Nc1ccc(Cl)c(C(F)(F)F)c1)N1C[C@H]2C[C@@H](c3ccccc3)C[C@H]2C1 [Example 108, N-[4-chloro-3-(trifluoromethyl)phenyl]-5-phenyl-octahydrocyclopenta[c] pyrrole-2-carboxamide]	
10 µM	> 10 µM	CC(=O)Nc1ccc(C(=O)CN2C[C@@H]3C[C@@](O)(Cc4ccccc4)C[C@@H]3C2)cc1 [Example 141, N-(4-(2-((3aR,5r,6aS)-5-benzyl-5-hydroxyhexahydrocyclo-penta[c]pyrrol-2(1H)-yl)acetyl)phenyl) acetamide]	
0.0516 µM	< 0.1 µM	O=C(CN1C[C@@H]2C[C@@](O)(Cc3ccc(F)cc3F)C[C@@H]2C1)c1ccc(O)cc1 [Example 238, 2-(5-(2,4-difluorobenzyl)-5-hydroxyhexahydrocyclo-penta[c]pyrrol-2(1H)-yl)-1-(4-hydroxyphenyl)ethanone]	
7.61 µM	1 to 10 µM	COc1ccc(C[C@]2(O)C[C@H]3CN(CC(=O)c4ccc(O)cn4)C[C@H]3C2)cc1 [Example 192, 2-[(3aR,5R,6aS)-5-hydroxy-5-[(4-methoxyphenyl)methyl]-octahydrocyclopenta[c]pyrrol-2-yl]-1-(5-hydroxypyridin-2-yl)ethan-1-one]	
0.232 µM	0.1 to 1 µM	O=C(CN1C[C@H]2C[C@@H](c3ccccc3)C[C@H]2C1)c1ccc(O)cc1 [Example 114, 1-(4-hydroxyphenyl)-2-(5-phenylhexahydrocyclo-penta[c]pyrrol-2(1H)-yl)ethanone]	
2.67 µM	1 to 10 µM	O=C(CN1CC2(C1)CC(O)(Cc1ccccc1)C2)c1ccc(O)cc1 [Example 342, 2-(6-benzyl-6-hydroxy-2-azspiro[3.3]heptan-2-yl)-1-(4-hydroxyphenyl)ethanone]	
0.803 µM	0.1 to 1 µM	O=C(CN1C[C@@H]2C[C@@](O)(Cc3ccc(C(F)(F)F)cc3)C[C@@H]2C1)c1ccc(O)cn1 [Example 216, 2-[(3aR,5R,6aS)-5-hydroxy-5-{[4-(trifluoromethyl)phenyl]methyl}-octahydrocyclopenta[c]pyrrol-2-yl]-1-(5-hydroxypyridin-2-yl)ethan-1-one]	
6.94 µM	1 to 10 µM	O=C(CN1C[C@@H]2C[C@@](O)(Cc3ccccc3)C[C@@H]2C1)c1ccc(O)cn1 [Example 140, 2-((3aR,5r,6S)-5-benzyl-5-hydroxyhexahydrocyclo-penta[c]pyrrol-2(1H)-yl)-1-(5-hydroxypyridin-2-yl)ethanone]	
0.0433 µM	< 0.1 µM	COc1ccc(C[C@]2(O)C[C@H]3CN(CC(=O)c4ccc(O)cc4)C[C@H]3C2)cc1 [Example 184, 2-[(3aR,5R,6aS)-5-hydroxy-5-[(4-methoxyphenyl)methyl]-octahydrocyclopenta[c]pyrrol-2-yl]-1-(4-hydroxyphenyl)ethan-1-one]	

Source: patent US10052306B2 (LUC THERAPEUTICS, INC., priority 2013, dated 2018)
